Measured values: publication PMC12217544 (Scientific Reports, 2025)
Values after ≈ are worked out from the molar mass of the structure shown.

What was measured:
[1] = test system: A/Puerto Rico/8/1934 H1N1; details: A/Puerto Rico/8/1934 H1N1, quantitative real-time PCR; ref [75]; cited from earlier work
Vero E6 cells = details: MTT assay, ref [76]; cited from earlier work
SARS-CoV-2 = details: SARS-CoV-2, Vero E6; ref [76]; cited from earlier work
in vitro = details: African green monkey, CC50, Vero E6 cells, crystal violet, 3 days
A549 cells = details: MTT, ref [75]; cited from earlier work

With Cc1ccc(C(C)C)c(O)c1 [Thymol] as the compound, how does the “concentration that effectively reduced the viral titer” value [1] read?
The value was 25 µg/mL.

And the CC50 (Vero E6 cells)?
The CC50 was 617 µM.

And the “viral inhibition percentage (plaque reduction)” value (SARS-CoV-2)?
The value was 96%.

What about the CC50 (in vitro) of the same compound?
The CC50 was 63.3 µg/mL (≈ 421 µM).

And the half-maximal cytotoxic concentration (A549 cells)?
The half-maximal cytotoxic concentration was 49.4 µg/mL.
